Assay results as given in PubChem BioAssay AID1259407 (Chemical Carcinogenesis Research Information System (CCRIS), 2018).
The source made the active and inactive calls. How the calls were made is not given here.

Test system: CCRIS mutagenicity, Ames/micronucleus/aberration tests
Assay: CCRIS mutagenicity studies
[1] = Test System: AMES SALMONELLA TYPHIMURIUM, Strain/Indicator: TA98, Metabolic Activation: NONE, Method: PREINCUBATION
[2] = Test System: AMES SALMONELLA TYPHIMURIUM, Strain/Indicator: TA100, Metabolic Activation: NONE, Method: PREINCUBATION
[3] = Test System: AMES SALMONELLA TYPHIMURIUM, Strain/Indicator: TA1535, Metabolic Activation: NONE, Method: PREINCUBATION

In the case of `O=S(=O)(O)c1cc(S(=O)(=O)O)c2c(N=Nc3ccccc3)c(O)ccc2c1`, the mutagenic call (End Point: IN VITRO CHROMOSOMAL ABERRATIONS, Test System: CHO CELLS, Metabolic Activation: NONE) is reported as “inactive; negative”, the mutagenic call (End Point: IN VITRO CHROMOSOMAL ABERRATIONS, Test System: CHO CELLS, Metabolic Activation: RAT, LIVER, S-9, AROCLOR 1254) is reported as “active; positive” and the mutagenic call (Test System: AMES SALMONELLA TYPHIMURIUM, Strain/Indicator: TA97, Metabolic Activation: HAMSTER, LIVER, S-9, AROCLOR 1254 (10 OR 30%), Method: PREINCUBATION) is reported as “inactive; negative”. The mutagenic call (Test System: AMES SALMONELLA TYPHIMURIUM, Strain/Indicator: TA97, Metabolic Activation: NONE, Method: PREINCUBATION) was “inactive; negative”, the mutagenic call (Test System: AMES SALMONELLA TYPHIMURIUM, Strain/Indicator: TA97, Metabolic Activation: RAT, LIVER, S-9, AROCLOR 1254 (10 OR 30%), Method: PREINCUBATION) was “inactive; negative” and the mutagenic call (Test System: AMES SALMONELLA TYPHIMURIUM, Strain/Indicator: TA98, Metabolic Activation: HAMSTER, LIVER, S-9, AROCLOR 1254 (10 OR 30%), Method: PREINCUBATION) was “inactive; negative”. The mutagenic call [1] was “inactive; negative”, the mutagenic call (Test System: AMES SALMONELLA TYPHIMURIUM, Strain/Indicator: TA98, Metabolic Activation: RAT, LIVER, S-9, AROCLOR 1254 (10 OR 30%), Method: PREINCUBATION) was “inactive; negative” and the mutagenic call (Test System: AMES SALMONELLA TYPHIMURIUM, Strain/Indicator: TA100, Metabolic Activation: HAMSTER, LIVER, S-9, AROCLOR 1254 (10 OR 30%), Method: PREINCUBATION) was “inactive; negative”. The mutagenic call [2] was “inactive; negative”, the mutagenic call (Test System: AMES SALMONELLA TYPHIMURIUM, Strain/Indicator: TA100, Metabolic Activation: RAT, LIVER, S-9, AROCLOR 1254 (10 OR 30%), Method: PREINCUBATION) was “inactive; negative” and the mutagenic call (Test System: AMES SALMONELLA TYPHIMURIUM, Strain/Indicator: TA1535, Metabolic Activation: HAMSTER, LIVER, S-9, AROCLOR 1254 (10 OR 30%), Method: PREINCUBATION) was “inactive; negative”. For the same molecule, the mutagenic call [3] was “inactive; negative”, the mutagenic call (Test System: AMES SALMONELLA TYPHIMURIUM, Strain/Indicator: TA1535, Metabolic Activation: RAT, LIVER, S-9, AROCLOR 1254 (10 OR 30%), Method: PREINCUBATION) was “inactive; negative” and the mutagenic call (Test System: MOUSE LYMPHOMA, Strain/Indicator: L5178Y (TK+/TK-), Metabolic Activation: NONE, Method: SUSPENSION/PLATE) was “inactive; negative. reevaluation of results: negative”. For the same molecule, the mutagenic call (Test System: MOUSE LYMPHOMA, Strain/Indicator: L5178Y (TK+/TK-), Metabolic Activation: RAT, LIVER, S-9, AROCLOR 1254, Method: SUSPENSION/PLATE) was “active; positive. reevaluation of results: equivocal”.

With `CCC[CH2][Sn]([Cl])([Cl])[Cl]` the mutagenic call (Test System: AMES SALMONELLA TYPHIMURIUM, Strain/Indicator: TA98, Metabolic Activation: NONE, Method: SUSPENSION/PLATE) was “inactive; negative” and the mutagenic call (Test System: AMES SALMONELLA TYPHIMURIUM, Strain/Indicator: TA100, Metabolic Activation: NONE, Method: SUSPENSION/PLATE) was “inactive; negative”.

`[C-]#[O+].[C-]#[O+].[Ni].c1ccc([PH+](c2ccccc2)c2ccccc2)cc1.c1ccc([PH+](c2ccccc2)c2ccccc2)cc1` was tested, and the mutagenic call (Test System: Ames Salmonella typhimurium, Strain/Indicator: TA100, Metabolic Activation: None, Method: Preincubation) was “inactive; negative”, the mutagenic call (Test System: Ames Salmonella typhimurium, Strain/Indicator: TA100, Metabolic Activation: Rat, Liver, S-9, Phenobarbital and 5,6-benzoflavone, Method: Preincubation) was “inactive; negative” and the mutagenic call (Test System: Ames Salmonella typhimurium, Strain/Indicator: TA102, Metabolic Activation: None, Method: Preincubation) was “inactive; negative”. The mutagenic call (Test System: Ames Salmonella typhimurium, Strain/Indicator: TA102, Metabolic Activation: Rat, Liver, S-9, Phenobarbital and 5,6-benzoflavone, Method: Preincubation) was “inactive; negative”.

With `[O-][Cl+3]([O-])([O-])O` the mutagenic call [1] was “inactive; negative”, the mutagenic call (Test System: AMES SALMONELLA TYPHIMURIUM, Strain/Indicator: TA98, Metabolic Activation: RAT LIVER S-9, PHENOBARBITAL AND BETA-NAPHTHOFLAVONE, Method: PREINCUBATION) was “inactive; negative” and the mutagenic call [2] was “inactive; negative”. For the same molecule, the mutagenic call (Test System: AMES SALMONELLA TYPHIMURIUM, Strain/Indicator: TA100, Metabolic Activation: RAT LIVER S-9, PHENOBARBITAL AND BETA-NAPHTHOFLAVONE, Method: PREINCUBATION) was “inactive; negative”, the mutagenic call [3] was “inactive; negative” and the mutagenic call (Test System: AMES SALMONELLA TYPHIMURIUM, Strain/Indicator: TA1535, Metabolic Activation: RAT LIVER S-9, PHENOBARBITAL AND BETA-NAPHTHOFLAVONE, Method: PREINCUBATION) was “inactive; negative”. The mutagenic call (Test System: AMES SALMONELLA TYPHIMURIUM, Strain/Indicator: TA1537, Metabolic Activation: NONE, Method: PREINCUBATION) was “inactive; negative”, the mutagenic call (Test System: AMES SALMONELLA TYPHIMURIUM, Strain/Indicator: TA1537, Metabolic Activation: RAT LIVER S-9, PHENOBARBITAL AND BETA-NAPHTHOFLAVONE, Method: PREINCUBATION) was “inactive; negative” and the mutagenic call (Test System: AMES SALMONELLA TYPHIMURIUM, Strain/Indicator: TA1538, Metabolic Activation: NONE, Method: PREINCUBATION) was “inactive; negative”. The mutagenic call (Test System: AMES SALMONELLA TYPHIMURIUM, Strain/Indicator: TA1538, Metabolic Activation: RAT LIVER S-9, PHENOBARBITAL AND BETA-NAPHTHOFLAVONE, Method: PREINCUBATION) was “inactive; negative”, the mutagenic call (Test System: E.COLI, Strain/Indicator: WP2UVRA, Metabolic Activation: NONE, Method: PREINCUBATION) was “inactive; negative” and the mutagenic call (Test System: E.COLI, Strain/Indicator: WP2UVRA, Metabolic Activation: RAT LIVER S-9, PHENOBARBITAL AND BETA-NAPHTHOFLAVONE, Method: PREINCUBATION) was “inactive; negative”.

In the case of `ClCOCCl`, the mutagenic call (Test System: AMES SALMONELLA TYPHIMURIUM, Strain/Indicator: G46, Metabolic Activation: NONE, Method: STANDARD PLATE) is reported as “active; positive”.

In the case of `CC(C)(CO)[C@@H](O)C(=O)NCCCO`, the mutagenic call (Test System: AMES SALMONELLA TYPHIMURIUM, Strain/Indicator: TA98, Metabolic Activation: NONE, Method: STANDARD PLATE) is reported as “inactive; negative”, the mutagenic call (Test System: AMES SALMONELLA TYPHIMURIUM, Strain/Indicator: TA98, Metabolic Activation: RAT, LIVER, S-9, AROCLOR 1254, Method: STANDARD PLATE) is reported as “inactive; negative” and the mutagenic call (Test System: AMES SALMONELLA TYPHIMURIUM, Strain/Indicator: TA100, Metabolic Activation: NONE, Method: STANDARD PLATE) is reported as “inactive; negative”. For the same molecule, the mutagenic call (Test System: AMES SALMONELLA TYPHIMURIUM, Strain/Indicator: TA100, Metabolic Activation: RAT, LIVER, S-9, AROCLOR 1254, Method: STANDARD PLATE) was “inactive; negative”, the mutagenic call (Test System: AMES SALMONELLA TYPHIMURIUM, Strain/Indicator: TA1535, Metabolic Activation: NONE, Method: STANDARD PLATE) was “inactive; negative” and the mutagenic call (Test System: AMES SALMONELLA TYPHIMURIUM, Strain/Indicator: TA1535, Metabolic Activation: RAT, LIVER, S-9, AROCLOR 1254, Method: STANDARD PLATE) was “inactive; negative”. For the same molecule, the mutagenic call (Test System: AMES SALMONELLA TYPHIMURIUM, Strain/Indicator: TA1537, Metabolic Activation: NONE, Method: STANDARD PLATE) was “inactive; negative”, the mutagenic call (Test System: AMES SALMONELLA TYPHIMURIUM, Strain/Indicator: TA1537, Metabolic Activation: RAT, LIVER, S-9, AROCLOR 1254, Method: STANDARD PLATE) was “inactive; negative” and the mutagenic call (Test System: AMES SALMONELLA TYPHIMURIUM, Strain/Indicator: TA1538, Metabolic Activation: NONE, Method: STANDARD PLATE) was “inactive; negative”. For the same molecule, the mutagenic call (Test System: AMES SALMONELLA TYPHIMURIUM, Strain/Indicator: TA1538, Metabolic Activation: RAT, LIVER, S-9, AROCLOR 1254, Method: STANDARD PLATE) was “inactive; negative”, the mutagenic call (Test System: E. COLI, Strain/Indicator: WP2, Metabolic Activation: NONE, Method: STANDARD PLATE) was “inactive; negative” and the mutagenic call (Test System: E. COLI, Strain/Indicator: WP2, Metabolic Activation: RAT, LIVER, S-9, AROCLOR 1254, Method: STANDARD PLATE) was “inactive; negative”.
